Experiments:
HxtC [1] = target: T1, HxtC (Aspergillus nidulans, UniProt C8VDD8); assay: competition of […]glucose uptake in S. cerevisiae EBY.VW4000 expressing the transporter; format: cell-based; settings: tenfold excess of unlabelled sugar over [14C]glucose
T1 construct: gene ANIA_10891; full-length ORF from cDNA, untagged (with stop codon), expressed from pRH195 in S. cerevisiae EBY.VW4000; strain A4 given for the GFP construct

HxtC [2] = target: T1, HxtC; assay: […]glucose uptake in S. cerevisiae EBY.VW4000 expressing the transporter; format: cell-based; settings: labelled compound; 30 °C; proton symport

T1 sequence (C8VDD8 entry or part of it): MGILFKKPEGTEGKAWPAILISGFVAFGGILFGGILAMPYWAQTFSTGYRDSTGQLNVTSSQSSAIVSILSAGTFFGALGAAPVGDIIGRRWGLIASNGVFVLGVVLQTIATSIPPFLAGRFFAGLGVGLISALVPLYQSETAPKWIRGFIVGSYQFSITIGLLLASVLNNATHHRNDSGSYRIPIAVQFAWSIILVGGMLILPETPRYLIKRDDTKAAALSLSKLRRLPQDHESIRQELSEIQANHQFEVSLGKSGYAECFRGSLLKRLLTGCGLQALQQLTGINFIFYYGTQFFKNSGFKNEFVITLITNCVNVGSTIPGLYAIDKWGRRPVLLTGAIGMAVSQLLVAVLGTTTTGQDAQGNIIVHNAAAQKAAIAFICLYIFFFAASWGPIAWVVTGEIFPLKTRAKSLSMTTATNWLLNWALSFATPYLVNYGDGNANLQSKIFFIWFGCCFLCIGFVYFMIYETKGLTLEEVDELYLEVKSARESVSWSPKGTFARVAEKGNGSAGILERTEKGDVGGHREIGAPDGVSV

## OC[C@H]1OC(O)[C@H](O)[C@@H](O)[C@H]1O (some centres unmarked) [galactose]
HxtC [1]
  % inhibition: unlabeled maltose, galactose, fructose and mannose were also able to inhibit to different levels

## OC[C@H]1OC(O)[C@H](O)[C@@H](O)[C@@H]1O (some centres unmarked) [glucose]
HxtC [2]
  [14C]glucose uptake in S. cerevisiae EBY.VW4000 expressing the transporter: these data suggested that HxtB, HxtC, and HxtE mediated glucose transport via active proton symport

## OC[C@H]1O[C@H](O[C@H]2[C@H](O)[C@@H](O)C(O)O[C@@H]2CO)[C@H](O)[C@@H](O)[C@@H]1O (some centres unmarked) [maltose]
HxtC [1]
  % inhibition: unlabeled maltose, galactose, fructose and mannose were also able to inhibit to different levels

## OCC1(O)OC[C@@H](O)[C@@H](O)[C@@H]1O (some centres unmarked) [fructose]
HxtC [1]
  % inhibition: unlabeled maltose, galactose, fructose and mannose were also able to inhibit to different levels

## OC[C@H]1OC(O)[C@@H](O)[C@@H](O)[C@@H]1O (some centres unmarked) [mannose]
HxtC [1]
  % inhibition: unlabeled maltose, galactose, fructose and mannose were also able to inhibit to different levels

Source: article PMC3839997, “Identification of Glucose Transporters in Aspergillus nidulans” (PLoS ONE, 2013)
